Experimental data taken from patent US20130190289A1, “COMPOUNDS AND METHODS FOR THE TREATMENT OR PREVENTION OF FLAVIVIRUS INFECTIONS” (priority 2010, published 2013).
Like-named read-outs stand apart in the source and are kept apart here.

Legend:
[1] = test system: HCV replicon (genotype 1b) in Huh7 cell line ET; assay: microbe, parasite or virus in culture; format: cell-based, HCV genotype 1b
[2] = test system: Huh-7 ET, Molt-4, DU-145, Hep-G2 and SH-SY5Y cells; assay: [3H]Thymidine incorporation assay (cell toxicity); details: read-out: [3H]Thymidine CC50; [3H]thymidine incorporation, cell toxicity; mean value class; cell line not given
[3] = test system: HCV sub-genomic replicon of genotype 1a in replicon cell line W11.8; assay: microbe, parasite or virus in culture; format: cell-based, HCV genotype 1a
Description: This procedure below describes the HCV replicon assay using a Huh7 hepatoma cell line harboring a highly cell culture-adapted replicon (genotype 1b) (hereafter named cell line ET). The ET cells contained the highly cell culture-adapted replicon I389luc-ubi-neo/NS3-3′/5.1 construct that carried, in addition to the neomycin gene, an integrated copy to the firefly luciferase gene (Krieger, N; Lohmann, V; Bartenschlager, R. Enhancement of hepatitis C virus RNA replication by cell culture-adaptive mutations. J. Virol. 2001, 75, 4614-4624). A replicon cell line W11.8, containing the 1a genotype of HCV was also used. These two cell lines (genotype 1b and 1a) allowed measurement of RNA replication and translation by measuring luciferase activity (against genotype 1b) or by measuring the NS5A level using the ELISA assay (against genotype 1a). […] ET cell lines were maintained in cultures at a sub-confluent level (<85%). The culture media used for cell passaging consisted of DMEM (Gibco BRL Laboratories, Mississauga, ON, Canada) supplemented with 10% fetal bovine serum with 1% penicilin/streptomycin, 1% glutamine, 1% sodium pyruvate, 1% non-essential amino acids, and 180 µg/ml of G418 final concentration.
Replicon cell lines W11.8 containing a sub-genomic replicon of genotype 1a was used for the HCV Replicon Cell-Based detection using the ELISA. The RNA replication in presence of different drug concentrations was indirectly measured in these cell lines by the level of NS5A protein content upon drug treatment for four days. The NS5A is a non-structural protein of HCV and is used as marker of HCV replication in this assay.
For the treatment of the cells with the testing drug, Culture medium was removed from the 175 cm^2 T-flask by aspiration. Cell monolayer was rinsed with 10-20 mL of PBS 1× at room temperature. PBS was removed by aspiration. Cells were trypsinized using 3 mL of Trypsin (0.25%)/EDTA (0.1%) solution. Flasks were incubated at 37° C. (incubator) for 7 minutes. Complete medium (9 mL) without G418 is then added. Cell clumps were disrupted by pipetting up and down several times.
The cell suspension was then transferred to a 50 mL Falcon polypropylene tube. Cells were then counted several times using the haemocytometer. Cells were diluted at 50,000 cells/mL with complete DMEM without G418, then transferred into a sterile reservoir. Using a multichannel pipet, approximately 5,000 viable cells (100 μL) were plated per well in a white opaque 96-well microtiter plate. After an incubation period of 2-4 hours at 37° C. in a 5% CO2 incubator, compounds were added at various concentrations.
Drugs were resuspended in DMSO at a stock concentration of 100 mM or 10 mM. […] Then, drugs were diluted at twice the final concentration in the same medium (without G418) described earlier, in sterile 96-deep well plate and according to a particular template (see Appendix). One volume (100 μL) of each drug dilution was then added to each well that contains cells.
Sixteen wells were used as control (0% inhibition) without drug. Eight wells were used as background control (100% inhibition) containing 2 μM (final concentration) of the reference compound. […] Values from 100% inhibited wells were averaged and used as the background value. Cells are further incubated for 4 days at 37° C. in a 5% CO2 incubator.
For the measurement of NS5A protein content, following the incubation time of four days, the media was throwed into an appropriate waste container by inverting the plate. Any residual liquid was removed by tapping gently on absorbent paper several times. The plates were then washed once with 150 μL of PBS per well, and then incubated for 5 minutes at room temperature on a shaker (500 rpm).

[4] = [3H]Thymidine incorporation assay (cell toxicity); details: human
[5] = read-out: HCV-Replicon-(Luci-ET) 1b_IC50
[6] = Hepatitis C virus, Huh-7, 96 h, read-out: HCV-Replicon (Luci-ET)-1b_IC50
[7] = Hepatitis C virus, W11.8, 96 h, read-out: HCV-Replicon-ELISA-1a IC50
[8] = Hepatitis C virus, Huh-7, read-out: HCV-Replicon-(Luci-ET) 1b_IC50
[9] = Hepatitis C virus, W11.8, read-out: HCV-Replicon-ELISA-1a IC50

SMILES: CC(C)C#Cc1cc(N(CC(=O)N2CC3(COC3)C2)C(=O)C2CCC(C)CC2)c(C(=O)O)s1 (centres unmarked) [Compound 71]
- IC50 [1, 5]: < 100 nM
- CC50 [2]: > 100000 nM

SMILES: CO[C@H](C)[C@@H](C(=O)N(C)C)N(c1cc(C#CC(C)(C)C)sc1C(=O)O)C(=O)[C@H]1CC[C@H](C)CC1 [Compound 57]
- IC50 [1, 5]: < 100 nM
- CC50 [2]: > 100000 nM

SMILES: COC(C)C(C(=O)N1CCOCC1)N(C(=O)C1CCC(C)CC1)c1cc(C#CC(C)(C)C)sc1C(=O)O (centres unmarked) [Compound 65]
- IC50 [1, 5]: < 100 nM
- CC50 [2]: > 100000 nM

SMILES: CC[C@@H](C(=O)N1CCN(C)CC1)N(c1cc(C#CC(C)(C)C)sc1C(=O)O)C(=O)[C@H]1CC[C@H](C)CC1 [Compound 82]
- IC50 [1, 5]: < 100 nM
- IC50 ([3]; read-out: HCV-Replicon-ELISA-1a IC50): < 100 nM
- CC50 [2]: > 100000 nM

SMILES: CCN1CC[C@H](N(c2cc(C#CC(C)(C)C)sc2C(=O)O)C(=O)[C@H]2CC[C@H](C)CC2)C1=O [Compound 131, 5-(3,3-dimethylbut-1-ynyl)-3-[[(3S)-1-ethyl-2-oxo-pyrrolidin-3-yl]-(trans-4-methylcyclohexanecarbonyl)amino]thiophene-2-carboxylic acid]
- IC50 [1, 6]: < 100 nM
- IC50 [3, 7]: < 100 nM
- CC50 at 72 h [4]: > 100000 nM

SMILES: COC(C)C(C(=O)N(C)C)N(C(=O)C1CCC(C)CC1)c1cc(C#CC(C)(C)C)sc1C(=O)O (centres unmarked) [Compound 75]
- IC50 [1, 5]: < 100 nM
- CC50 [2]: 10000 to 100000 nM

SMILES: CC1CCC(C(=O)N(c2cc(C#CC(C)(C)C)sc2C(=O)O)C2CCN(C)C2=O)CC1 (centres unmarked) [Compound 83]
- IC50 [1, 8]: < 100 nM
- IC50 [3, 9]: < 100 nM
- CC50 at 72 h [4]: > 100000 nM

SMILES: CN1CCC[C@H](N(C(=O)c2ccc(Cl)cc2Cl)c2cc(C#CC(C)(C)C)sc2C(=O)O)C1=O [Compound 140, (S)-5-(3,3-Dimethylbut-1-ynyl)-3-[(2,4-dichlorobenzoyl)-N-(1-methyl-2-oxopiperidin-3-yl)amino]-thiophene-2-carboxylic acid]
- IC50 [1, 6]: < 100 nM
- IC50 [3, 7]: < 100 nM
- CC50 at 72 h [4]: > 100000 nM

SMILES: CC[C@@H](C(=O)N1C[C@@H]2C[C@H]1CO2)N(c1cc(C#CC(C)(C)C)sc1C(=O)O)C(=O)[C@H]1CC[C@H](C)CC1 [Compound 94]
- IC50 [1, 8]: < 100 nM
- IC50 [3, 9]: < 100 nM
- CC50 at 72 h [4]: > 100000 nM

SMILES: CC(C)(C)C#Cc1cc(N(CC(=O)N2CCOCC2)C(=O)[C@H]2CC[C@H](C)CC2)c(C(=O)O)s1 [Compound 14]
- IC50 [1, 8]: < 100 nM
- IC50 [3, 9]: < 100 nM
- CC50 at 72 h [4]: > 100000 nM

SMILES: COCC[C@@H](C(=O)N1CCOCC1)N(C(=O)C1CCC(C)CC1)c1cc(C#CC(C)(C)C)sc1C(=O)O (some centres unmarked) [Compound 61]
- IC50 [1, 8]: < 100 nM
- IC50 [3, 9]: < 100 nM
- CC50 at 72 h [4]: > 100000 nM

SMILES: CC(C)N1CC[C@H](N(c2cc(C#CC(C)(C)C)sc2C(=O)O)C(=O)[C@H]2CC[C@H](C)CC2)C1=O [Compound 142, 5-(3,3-dimethylbut-1-ynyl)-3-[[(3S)-1-isopropyl-2-oxo-pyrrolidin-3-yl]-(trans-4-methylcyclohexanecarbonyl)amino]thiophene-2-carboxylic acid]
- IC50 [1, 6]: < 100 nM
- IC50 [3, 7]: < 100 nM
- CC50 at 72 h [4]: 10000 to 100000 nM

SMILES: CN(C)C(=O)CN(C(=O)c1ccc(Cl)cc1Cl)c1cc(C#CC(C)(C)C)sc1C(=O)O [Compound 4, 3-[(2,4-Dichloro-benzoyl)-dimethylcarbamoylmethyl-amino]-5-(3,3-dimethyl-but-1-ynyl)-thiophene-2-carboxylic acid]
- IC50 [1, 8]: < 100 nM
- IC50 [3, 9]: 100 to 1000 nM
- CC50 at 72 h [4]: 10000 to 100000 nM

SMILES: COCCN1CC[C@H](N(c2cc(C#CC(C)(C)C)sc2C(=O)O)C(=O)[C@H]2CC[C@H](C)CC2)C1=O [Compound 133, 5-(3,3-Dimethylbut-1-ynyl)-3-[[(3S)-1-(2-methoxyethyl)-2-oxo-pyrrolidin-3-yl]-(trans-4-methylcyclohexanecarbonyl)amino]thiophene-2-carboxylic acid]
- IC50 [1, 6]: < 100 nM
- IC50 [3, 7]: < 100 nM
- CC50 at 72 h [4]: > 100000 nM

SMILES: COC[C@@H](C(=O)N1CCOCC1)N(C(=O)C1CCC(C)CC1)c1cc(C#CC(C)(C)C)sc1C(=O)O (some centres unmarked) [Compound 23]
- IC50 [1, 8]: < 100 nM
- IC50 [3, 9]: < 100 nM
- CC50 at 72 h [4]: > 100000 nM

SMILES: COCC(C(=O)N(C)C)N(C(=O)C1CCC(C)CC1)c1cc(C#CC(C)C)sc1C(=O)O (centres unmarked) [Compound 16]
- IC50 [1, 8]: < 100 nM
- IC50 [3, 9]: < 100 nM
- CC50 at 72 h [4]: > 100000 nM

SMILES: CC(C)CC#Cc1cc(N(CC(=O)N2CCOCC2)C(=O)[C@H]2CC[C@H](C)CC2)c(C(=O)O)s1 [Compound 130, 3-[(trans-4-methylcyclohexanecarbonyl)-(2-morpholino-2-oxo-ethyl)amino]-5-(4-methylpent-1-ynyl)thiophene-2-carboxylic acid]
- IC50 [1, 6]: 100 to 1000 nM
- IC50 [3, 7]: 100 to 1000 nM
- CC50 at 72 h [4]: > 100000 nM

SMILES: CN(C)C(=O)CN(c1cc(C#CC(C)(C)C)sc1C(=O)O)C(=O)[C@H]1CC[C@H](C)CC1 [Compound 5, 5-(3,3-Dimethyl-but-1-ynyl)-3-[dimethylcarbamoylmethyl-(trans-4-methyl-cyclohexanecarbonyl)-amino]-thiophene-2-carboxylic acid]
- IC50 [1, 8]: < 100 nM
- IC50 [3, 9]: < 100 nM
- CC50 at 72 h [4]: > 100000 nM

SMILES: CC[C@@H](C(=O)N(C)C)N(c1cc(C#CC(C)(C)C)sc1C(=O)O)C(=O)[C@H]1CC[C@H](C)CC1 [Compound 13]
- IC50 [1, 8]: < 100 nM
- IC50 [3, 9]: < 100 nM
- CC50 at 72 h [4]: > 100000 nM

SMILES: CC[C@@H](C(=O)N1CCOCC1)N(c1cc(C#CC(C)(C)C)sc1C(=O)O)C(=O)[C@H]1CC[C@H](C)CC1 [Compound 12]
- IC50 [1, 8]: < 100 nM
- IC50 [3, 9]: < 100 nM
- CC50 at 72 h [4]: 10000 to 100000 nM

SMILES: C[C@@H](CN(c1cc(C#CC(C)(C)C)sc1C(=O)O)C(=O)[C@H]1CC[C@H](C)CC1)C(=O)N1CCOCC1 [Compound 108, 5-(3,3-Dimethylbut-1-ynyl)-3-[(trans-4-methylcyclohexanecarbonyl)-[(2S)-2-methyl-3-morpholino-3-oxo-propyl]amino]thiophene-2-carboxylic acid]
- IC50 [1, 8]: < 100 nM
- IC50 [3, 9]: < 100 nM
- CC50 at 72 h [4]: > 100000 nM

SMILES: COCC(C(=O)N(C)C)N(C(=O)C1CCC(C)CC1)c1cc(C#CC(C)(C)C)sc1C(=O)O (single isomer, unassigned) [Compound 21]
- IC50 [1, 8]: < 100 nM
- IC50 [3, 9]: < 100 nM
- CC50 at 72 h [4]: > 100000 nM
